From patent US20150315218A1, “SALTS OF PRODRUGS OF PIPERAZINE AND SUBSTITUTED PIPERIDINE ANTIVIRAL AGENTS” (Bristol-Myers Squibb Company, priority 2004, published 2015)
Entries after “also recorded” stand apart in the source; their conditions may differ. Structures can show the parent of a compound that is named as a salt. Where two headings read alike, the source gives them in different places.

Columns and labels:
[1] = Solution and solid stability; type: physicochemical
[2] = Effect of food on oral absorption of IVa in dogs after Iab or IVa capsules; type: in vivo, dog
Description: To study the effect of food on the oral absorption of IVa after administration of Iab and IVa, these two compounds were administered in capsules as solid to a group of three dogs in a cross-over fashion under overnight fasting and fed conditions. There was a one-week washout period between each study. Iab was administered at 200 mg per dog (ca 20 mg/kg) of IVa equivalent; IVa was administered in a clinical capsule formulation at 200 mg per dog (ca 20 mg/kg). In the studies where the dogs were fed, the following meal was prepared: 2 slices of bacon, 2 eggs, 2 pieces of toast with butter and jelly, 4 oz. hash browns and 8 oz. of whole milk. After homogenization using a laboratory blender, the meal was equally divided into five portions and kept frozen. Before the study, the meals were thawed and each dog was fed one portion.

in vitro = settings: rat, serum
Description: The stability of Iab was studied in fresh blood and serum from rat, dog, monkey and human (n=2). The blood was collected in vacutainers containing K2EDTA (Becton Dickinson, Franklin Lakes, N.J.). The serum was collected in vacutainers containing no anticoagulant. Iab was incubated at a starting concentration of approximately 10 μM for 60-90 min at 37° C. Serial samples were taken at the pre-determined times. Aliquots of blood samples (200 μL) were first mixed with 100 μL of water followed by 400 μL of acetonitrile. The serum samples (50 μL) were added into microtainers containing K2EDTA (Becton Dickinson, Franklin Lakes, N.J.) followed by the addition of 100 μL of acetonitrile. The supernatant was analyzed for both Iab and IVa by LC/MS/MS. The stability of Ibb was studied in fresh blood and serum from rat, dog, monkey and human (n=2). The blood was collected in vacutainers containing K2EDTA (Becton Dickinson, Franklin Lakes, N.J.). The serum was collected in vacutainers containing no anticoagulant. Ibb was incubated at a starting concentration of approximately 15 μM for 90 min at 37° C. Serial samples were taken at the pre-determined times. Aliquots of blood samples (200 μL) were first mixed with 100 μL of water followed by 400 μL of acetonitrile. The serum samples (50 μL) were added into microtainers containing K2EDTA (Becton Dickinson, Franklin Lakes, N.J.) followed by the addition of 100 μL of acetonitrile. […] The stability of Icb was studied in fresh blood and serum from rat, dog, monkey and human (n=2). The blood was collected in vacutainers containing K2EDTA (Becton Dickinson, Franklin Lakes, N.J.). The serum was collected in vacutainers containing no anticoagulant. Icb was incubated at a starting concentration of approximately 10 μM for 90 min at 37° C. Serial samples were taken at the pre-determined times. Aliquots of blood samples (200 μL) were first mixed with 100 μL of water followed by 400 μL of acetonitrile. The serum samples (50 μL) were added into microtainers containing K2EDTA (Becton Dickinson, Franklin Lakes, N.J.) followed by the addition of 100 μL of acetonitrile.

[3] = target: T1, human placental alkaline phosphatase (ALP) (Homo sapiens, UniProt P05187); experiment: Hydrolysis of prodrug in human placental ALP solutions; type: in vitro ADME; settings: human placental ALP solution, 37°C, 120 min, read-out: t1/2 (min) of prodrug disappearance
T1 construct: To study the hydrolysis of lab in a purified form of human ALP, Iab was incubated in human placental ALP solutions; host or cells: human placenta (inferred from the name and from 'ALP derived from humans')
Description: (§1) Solid human placental ALP was obtained from Sigma (P-3895, St. Louis, Mo.). […] Solutions of 100 and 10 units/L were obtained by serial dilution. Iab was incubated in the 10, 100 and 1000 units/L solutions (n=2) at 37° C. for 2 hr. The starting concentration of Iab in the incubation was 10 μM. Aliquots of 100 μL samples were taken at pre-determined times and added into K2EDTA microtainers followed by the addition of 200 μL of acetonitrile.
as §1, with “Ibb” for “Iab”
as §1, with “Icb” for “Iab”, “acetonitrile. The supernatant was analyzed for both Icb and IVe by LC/MS/MS.” for “acetonitrile.”

human hepatocytes = experiment: Hydrolysis of prodrug in hepatocytes (human); type: in vitro ADME; settings: human hepatocytes, qualitative
Description: (§2) The in vitro intrinsic clearance of Ibb in hepatocytes (Clint) was calculated as follows: Clint(μL/min/million cells)=Rate/CE where Rate is the rate of metabolism in hepatocytes (pmol/min/million cells), and CE is the concentration of Ibb in the incubation. The in vitro intrinsic clearance of Icb in hepatocytes (Clint) was calculated as follows: Clint(μL/min/million cells)=Rate/CE where Rate is the rate of metabolism in hepatocytes (pmol/min/million cells), and CE is the concentration of Icb in the incubation.

[4] = Aqueous / crystalline solubility; settings: aqueous solution
physchem = settings: aqueous solution, thermodynamic from solid
rat hepatocytes = experiment: Hydrolysis of prodrug in hepatocytes (rat); type: in vitro ADME; settings: rat hepatocytes, qualitative
Description: as §2

T1 sequence (P05187 23-506 limits assumed): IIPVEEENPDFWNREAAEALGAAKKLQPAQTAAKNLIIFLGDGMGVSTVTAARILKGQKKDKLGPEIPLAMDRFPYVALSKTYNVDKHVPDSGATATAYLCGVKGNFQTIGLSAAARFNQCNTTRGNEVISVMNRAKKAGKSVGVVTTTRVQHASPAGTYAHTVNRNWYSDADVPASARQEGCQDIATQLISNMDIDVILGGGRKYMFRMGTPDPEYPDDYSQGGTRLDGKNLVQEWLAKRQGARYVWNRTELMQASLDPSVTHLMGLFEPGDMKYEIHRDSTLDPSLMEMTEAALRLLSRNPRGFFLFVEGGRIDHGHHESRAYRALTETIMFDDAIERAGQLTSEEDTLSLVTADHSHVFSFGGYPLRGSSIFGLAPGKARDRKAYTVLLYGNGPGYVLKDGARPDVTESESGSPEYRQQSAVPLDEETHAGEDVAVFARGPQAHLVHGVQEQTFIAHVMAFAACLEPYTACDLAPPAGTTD

For `COc1cnc(OC)c2c1c(C(=O)C(=O)N1CCN(C(=O)c3ccccc3)CC1)cn2COP(=O)(O)O` [Iab, {3-[(4-benzoylpiperazin-1-yl)(oxo)acetyl]-4,7-dimethoxy-1H-pyrrolo[2,3-c]pyridin-1-yl}methyl dihydrogen phosphate, L-lysine salt (1:1)], the “solution and solid stabilities” value [1] was “acceptable solution and solid stabilities”, the “AUC of IVa from Iab capsules (fasted dogs) relative to fed dogs given IVa clinical capsule” value ([2]; 200 mg/dog of IVa equivalent) was 4 times and the “Cmax of IVa from Iab capsules (fasted dogs) relative to fed dogs given IVa clinical capsule” value ([2]; 200 mg/dog of IVa equivalent) was 6 times. For the same compound, the “difference in AUC and Cmax of IVa between fasted and fed dogs” value ([2]; dogs receiving Iab capsules) was “No significant differences; also recorded: not significantly different”, the “Cmax of IVa from Iab capsules relative to IVa clinical capsule in fasted dogs” value ([2]; fasted dogs, 200 mg/dog of IVa equivalent) was 58 times and the half-life at 10 μM (in vitro) was 80 min. For the same compound, the half-life at 10 μM ([3]; pH 7.5, ALP Activity 10 Units/L) was 186 min, the half-life at 10 μM ([3]; pH 7.5, ALP Activity 100 Units/L) was 14 min and the half-life at 10 μM ([3]; pH 7.5, ALP Activity 1000 Units/L) was 1.4 min. The “hydrolysis in the presence of hepatocytes” value (human hepatocytes) was “hydrolyzed”, the “concentration of aqueous solutions prepared for in vivo toxicology studies” value [4] was greater than 100 mg/mL and the solubility (physchem; aqueous buffer) was greater than 12 mg/mL. The solubility (physchem; pH 1.4, simulated gastric fluid) was 0.22 mg/mL and the “hydrolysis in the presence of hepatocytes” value (rat hepatocytes) was “hydrolyzed”.
